Reference: patent US5134137A, “Cephalosporin antibiotics” (The Upjohn Company, priority 1990, dated 1992)
Values after ≈ are worked out from the molar mass of the structure shown. Like-named read-outs stand apart in the source and are kept apart here.

What was measured:
Format in all cases: cell-based
Micrococcus luteus = assay: MIC, agar dilution, Micrococcus luteus; conditions: Micrococcus luteus; strain UC130; read-out: MIC
Method: (§1) Stock solution of each test antibiotic compound were prepared to have a concentration of 2 mg. of the test compound per milliliter in sterile water of 0.1M ammonium acetate solution. The amount of each compound used was adjusted for base compound activity as calculated from the purity data for the selected batch of compound.
(§2) The dilution procedure described by Washington and Sutter [Manual of Clinical Microbiology, 3rd, Edit. (Lennett, E. H. et al, Eds.), pp. 453-458 (1980), American Society for Microbiology, Washington, D.C.] was modified so that serial concentrations of 128 to 0.0625 microgram/ml. in sterile water was obtained. Then 1.5 ml. aliquots of these test antibiotic dilution mixtures are added to 13.5 molten (50° C.) Mueller-Hinton agar. Each resulting mixture is poured into 15×100 mm, sterile Petri plates and allowed to dry at room temperature overnight.
(§3) Test bacterial cultures are maintained at -70° C. on glass beads. [See R. J. Yancey, Jr. et al, Amer. Jr. of Vet. Research, 48, No. 7, pp. 1050-1053, (1987)]. At least one bacteria-laden bead per culture is dropped into one ml. of brain heart infusion (BHI) broth for overnight culture at 37° C. in 5% V/V carbon dioxide in air atmosphere.
(§4) On the data of assay, 2 to 8 drops of the bacterial broth cultures are transferred to fresh BHI broth (1 ml.) and the mixture is incubated for 4 to 6 hours at 37° C. in a 5% V/V carbon dioxide in air atmosphere. The resulting cultures are then diluted to match a 0.5 MacFarland standard and further diluted 1:20 V/V with sterile saline solution.
(§5) A 0.001 ml. drop of the resulting mixture, containing approximately 10^3 to 10^4 colony forming units (CFU) of each test bacteria organism, is dispensed onto the surface of the test antibiotic compound test plates with a Steer's type replicator. The resulting innoculated plates are incubated 16 to 18 hours at 37° C. with a carbon dioxide atmosphere.
as §1, with “Stock solutions” for “Stock solution”
as §2, with “mm.” for “mm,”
as §2, with “for Microbiology.” for “for Microbiology,”, “15×100 mm.” for “15×100 mm,”
as §3, with “culture” for “cultures”
(§6) On the day of assay, 2 to 8 drops of the bacterial broth cultures are transferred to fresh BHI broth (1 ml.) and the mixture is incubated for 4 to 6 hours at 37° C. in a 5% V/V carbon dioxide in air atmosphere. […]

Corynebacterium pyogenes = assay: MIC, agar dilution, Corynebacterium pyogenes; conditions: strain 213-2; read-out: MIC
Method: as §1, §2, §3, §4, §5
as §1, with “Stock solutions” for “Stock solution”
as §2, with “mm.” for “mm,”
as §2, with “for Microbiology.” for “for Microbiology,”, “15×100 mm.” for “15×100 mm,”
as §3, with “culture” for “cultures”
as §6

Staphylococcus aureus = assay: MIC, agar dilution, Staphylococcus aureus; conditions: Staphylococcus aureus, read-out: MIC
Method: as §1, §2, §3, §4, §5
as §1, with “Stock solutions” for “Stock solution”
as §2, with “mm.” for “mm,”
as §2, with “for Microbiology.” for “for Microbiology,”, “15×100 mm.” for “15×100 mm,”
as §3, with “culture” for “cultures”
as §6

Salmonella typhimurium = assay: MIC, agar dilution, Salmonella typhimurium; conditions: Salmonella enterica, read-out: MIC
Method: as §1, §2, §3, §4, §5
as §1, with “Stock solutions” for “Stock solution”
as §2, with “mm.” for “mm,”
as §2, with “for Microbiology.” for “for Microbiology,”, “15×100 mm.” for “15×100 mm,”
as §3, with “culture” for “cultures”
as §6

Escherichia coli = assay: MIC, agar dilution, Escherichia coli; conditions: Escherichia coli, read-out: MIC
Method: as §1, §2, §3, §4, §5
as §1, with “Stock solutions” for “Stock solution”
as §2, with “mm.” for “mm,”
as §2, with “for Microbiology.” for “for Microbiology,”, “15×100 mm.” for “15×100 mm,”
as §3, with “culture” for “cultures”
as §6

Pseudomonas aeruginosa = assay: MIC, agar dilution, Pseudomonas aeruginosa; conditions: Pseudomonas aeruginosa, ATCC27853; strain ATCC 27853; read-out: MIC
Method: as §1, §2, §3, §4, §5
as §1, with “Stock solutions” for “Stock solution”
as §2, with “mm.” for “mm,”
as §2, with “for Microbiology.” for “for Microbiology,”, “15×100 mm.” for “15×100 mm,”
as §3, with “culture” for “cultures”
as §6

Streptococcus suis = assay: MIC, agar dilution, Streptococcus suis; conditions: Streptococcus suis; strain 650-2; read-out: MIC
Method: as §1, §2, §3, §4, §5
as §1, with “Stock solutions” for “Stock solution”
as §2, with “mm.” for “mm,”
as §2, with “for Microbiology.” for “for Microbiology,”, “15×100 mm.” for “15×100 mm,”
as §3, with “culture” for “cultures”
as §6

Pasteurella multocida = assay: MIC, agar dilution, Pasteurella multocida; conditions: Pasteurella multocida; strain UC9581; read-out: MIC
Method: as §1, §2, §3, §4, §5
as §1, with “Stock solutions” for “Stock solution”
as §2, with “mm.” for “mm,”
as §2, with “for Microbiology.” for “for Microbiology,”, “15×100 mm.” for “15×100 mm,”
as §3, with “culture” for “cultures”
as §6

Pasteurella hemolytica = assay: MIC (minimum inhibitory concentration), agar dilution, Pasteurella hemolytica; conditions: Pasteurella, read-out: MIC
Method: as §1, §2, §3, §4, §5
as §1, with “Stock solutions” for “Stock solution”
as §2, with “mm.” for “mm,”
as §2, with “for Microbiology.” for “for Microbiology,”, “15×100 mm.” for “15×100 mm,”
as §3, with “culture” for “cultures”
as §6

Enterococcus faecalis = assay: MIC, agar dilution, Enterococcus faecalis; conditions: Enterococcus faecalis; strain UC694; read-out: MIC
Method: as §1, with “Stock solutions” for “Stock solution”
as §2, §3, §4, §5, §1
as §2, with “mm.” for “mm,”
as §2, with “for Microbiology.” for “for Microbiology,”, “15×100 mm.” for “15×100 mm,”
as §3, with “culture” for “cultures”
as §6

[1] = system: Streptococcus dysgalactiae; assay: MIC, agar dilution, Streptococcus dysgalactiae; conditions: Streptococcus dysgalactiae; strain UC251; read-out: MIC
Method: as §1, §2, §3, §4, §5
as §1, with “Stock solutions” for “Stock solution”
as §2, with “mm.” for “mm,”
as §2, with “for Microbiology.” for “for Microbiology,”, “15×100 mm.” for “15×100 mm,”
as §3, with “culture” for “cultures”
as §6

Streptococcus agalactiae = assay: MIC, agar dilution, Streptococcus agalactiae; conditions: Streptococcus agalactiae, read-out: MIC
Method: as §1, §2, §3, §4, §5
as §1, with “Stock solutions” for “Stock solution”
as §2, with “mm.” for “mm,”
as §2, with “for Microbiology.” for “for Microbiology,”, “15×100 mm.” for “15×100 mm,”
as §3, with “culture” for “cultures”
as §6

Salmonella choleraesuis = assay: MIC, agar dilution, Salmonella choleraesuis; conditions: Salmonella enterica, read-out: MIC
Method: as §1, §2, §3, §4, §5
as §1, with “Stock solutions” for “Stock solution”
as §2, with “mm.” for “mm,”
as §2, with “for Microbiology.” for “for Microbiology,”, “15×100 mm.” for “15×100 mm,”
as §3, with “culture” for “cultures”
as §6

[2] = system: Bordetella bronchiseptica; assay: MIC, agar dilution, Bordetella bronchiseptica; conditions: Bordetella bronchiseptica; strain UC6313; read-out: MIC
Method: as §1, §2, §3, §4, §5
as §1, with “Stock solutions” for “Stock solution”
as §2, with “mm.” for “mm,”
as §2, with “for Microbiology.” for “for Microbiology,”, “15×100 mm.” for “15×100 mm,”
as §3, with “culture” for “cultures”
as §6

Streptococcus uberis = assay: MIC, agar dilution, Streptococcus uberis; conditions: Streptococcus uberis, read-out: MIC
Method: as §1, §2, §3, §4, §5
as §1, with “Stock solutions” for “Stock solution”
as §2, with “mm.” for “mm,”
as §2, with “for Microbiology.” for “for Microbiology,”, “15×100 mm.” for “15×100 mm,”
as §3, with “culture” for “cultures”
as §6

Enterococcus faecium = assay: MIC, agar dilution, Enterococcus faecium; conditions: Enterococcus faecium; strain UC241; read-out: MIC
Method: as §1, with “Stock solutions” for “Stock solution”
as §2, §3, §4, §5, §1
as §2, with “mm.” for “mm,”
as §2, with “for Microbiology.” for “for Microbiology,”, “15×100 mm.” for “15×100 mm,”
as §3, with “culture” for “cultures”
as §6

Streptococcus bovis = assay: MIC, agar dilution, Streptococcus bovis; conditions: Streptococcus equinus; strain UC6281; read-out: MIC
Method: as §1, §2, §3, §4, §5
as §1, with “Stock solutions” for “Stock solution”
as §2, with “mm.” for “mm,”
as §2, with “for Microbiology.” for “for Microbiology,”, “15×100 mm.” for “15×100 mm,”
as §3, with “culture” for “cultures”
as §6

MIC (Micrococcus luteus): 0.13 µg/mL (≈ 0.251 µM) | MIC (Corynebacterium pyogenes): 32 µg/mL (≈ 61.8 µM) | MIC (Staphylococcus aureus; strain UC6093): 4 µg/mL (≈ 7.73 µM) | MIC (Staphylococcus aureus; strain UC6097): 2 µg/mL (≈ 3.86 µM) | MIC (Staphylococcus aureus; strain UC9203): 2 µg/mL (≈ 3.86 µM) | MIC (Salmonella typhimurium; TYPHIMURIUM / UC6162, strain UC6162): 16 µg/mL (≈ 30.9 µM) | MIC (Salmonella typhimurium; TYPHIMURIUM / UC6164, strain UC6164): 16 µg/mL (≈ 30.9 µM) | MIC (Escherichia coli; strain UC3784): 8 µg/mL (≈ 15.5 µM) | MIC (Escherichia coli; strain UC6720): 16 µg/mL (≈ 30.9 µM) | MIC (Escherichia coli; strain UC9670): 8 µg/mL (≈ 15.5 µM) | MIC (Pseudomonas aeruginosa): > 32 µg/mL | MIC (Streptococcus suis): ≤ 0.06 µg/mL | MIC (Pasteurella multocida): 8 µg/mL (≈ 15.5 µM) | MIC (Enterococcus faecalis): > 32 µg/mL | MIC [1]: ≤ 0.06 µg/mL | MIC (Streptococcus agalactiae; strain UC3947): 2 µg/mL (≈ 3.86 µM) | MIC (Streptococcus agalactiae; strain UC6892): > 32 µg/mL | MIC [2]: > 32 µg/mL | MIC (Streptococcus uberis; strain UC3946): 0.13 µg/mL (≈ 0.251 µM) | MIC (Streptococcus uberis; strain UC6159): 8 µg/mL (≈ 15.5 µM) | MIC (Enterococcus faecium): > 32 µg/mL | MIC (Streptococcus bovis): > 32 µg/mL
SMILES: CCC(C)SSCC1=C(C(=O)O)N2C(=O)[C@@H](NC(=O)/C(=N\OC)c3csc(N)n3)[C@H]2SC1 (stereo partly drawn) [Example 13]
MIC (Pasteurella hemolytica; strain UC6531): 1 µg/mL (≈ 1.93 µM) | MIC (Pasteurella hemolytica; strain UC6532): 0.13 µg/mL (≈ 0.251 µM) | MIC (Pasteurella hemolytica; strain UC9582): 0.25 µg/mL (≈ 0.483 µM) | MIC (Salmonella choleraesuis; CHOLERAESUIS / UC6073, strain UC6073): 32 µg/mL (≈ 61.8 µM) | MIC (Salmonella choleraesuis; CHOLERAESUIS / UC6077, strain UC6077): > 32 µg/mL
